In publication PMC11995238, “Discovery of Highly Potent BET Inhibitors based on a Tractable Tricyclic Scaffold” (ACS Medicinal Chemistry Letters, 2025):
≈ marks a conversion by molar mass, not a printed value. Where “and” joins values, the source holds several entries; their conditions need not be identical. Identical values can stand only once. Like-named read-outs stand apart in the source and are kept apart here.

Legend:
[1] = hydrophobicity (chrom LogD7.4) and property forecast index (PFI); assay type: physicochemical; settings: for PFI: PFI = chrom LogD7.4 + #Ar; for chromatographic logD: pH 7.4, chromatographic
Experimental: (§1) Potency was determined against BRD4-BD1 using FRET binding, with this being treated as a surrogate of BRD4 activity given the homology between BD1 and BD2 across the BET proteins. , PFI is calculated from hydrophobicity plus aromatic ring count (chromatographic (chrom) logD7.4 + #Ar), with this metric being indicative of developability, or likelihood of progression to a drug candidate. PFI was used to assess the physicochemical profile of compounds, with a target of PFI < 7 as risks for several parameters, including solubility, are increased above this upper limit. Our objective was to develop a BET inhibitor with high potency and favorable physicochemical properties, as determined using PFI and LipE to guide compound optimization.
(§2) hydrophobicity (chrom LogD7.4), solubility (CAD), permeability (PAMPA)
(§3) and metabolic stability (CLint) have all been described previously.1

[2] = kinetic solubility by CAD; assay type: physicochemical; settings: n = 1
Experimental: (§4) For both enantiomers, kinetic solubility, permeability and metabolic stability data, the latter measured by in vitro microsomal intrinsic clearance (CLint) in rats and humans, was collected (Table ). , Docking of 44 and 45 into the BRD4-BD1 binding pocket was also carried out (Figures S3–4).
as §2, §3

BRD4-BD1 [3] = target: T1, BRD4-BD1 (Homo sapiens, UniProt O60885); experiment: lipophilic efficiency (LipE = pIC50 – cLogP); settings: predicted using Data Warrior
Source text: The final BET inhibitor discussed is BMS-986158 (4) (Figure ).

[4] = parallel artificial membrane permeability assay (PAMPA); assay type: in vitro ADME
Experimental: Additionally, the in vitro permeability of these compounds was determined by a parallel artificial membrane permeability assay (PAMPA). […] This would be protonated at physiological pH and decrease the overall affinity of the compound toward the hydrophobic membrane region.
as §2, §3

[5] = in vitro metabolic stability in rat liver microsomes (CLint); assay type: in vitro ADME, rats; settings: n = 1
Experimental: as §4, §2, §3

[6] = in vitro metabolic stability in human liver microsomes (CLint); assay type: in vitro ADME, humans; settings: n = 1
Experimental: as §4, §2, §3

BRD4-BD1 [7] = target: T1, BRD4-BD1; experiment: BRD4-BD1 FRET binding; settings: for pIC50 ± SD: n = 4
Experimental: as §1

BRD4 [8] = settings: binding to BRD4, reported; cited from earlier work
[9] = system: panel of human lung cancer cell lines; settings: reported; cited from earlier work
BRD2 = settings: binding to BRD2, reported; cited from earlier work
BRD3 = settings: binding to BRD3, reported; cited from earlier work
c-Myc expression = settings: advanced malignancies such as AML; cited from earlier work
[10] = cited from earlier work
tumor cell = settings: advanced malignancies such as AML; cited from earlier work
BRD4 [11] = settings: BRD4, AlphaScreen; cited from earlier work
BRD4 [12] = settings: BRD4, fluorescence polarization; cited from earlier work
[13] = Phase I studies; cited from earlier work
BRD4 [14] = settings: BRD4, FRET binding; cited from earlier work
[15] = BRD4-BD1, FRET binding, n = 2, enantiomers
[16] = BRD4-BD1, values for 29, 30, 40

| SMILES | PFI [1] | LipE (BRD4-BD1 [3]) | Papp [4] [×10⁻⁶ cm/s] | pIC50 ± SD (BRD4-BD1 [7]; BRD4-BD1, FRET binding) | further results |
| --- | --- | --- | --- | --- | --- |
| Cc1nnn(C)c1-c1ccc2c3nnc(NCCO)nc3n([C@@H](c3ccccn3)C3CCOCC3)c2c1 (single isomer, unassigned) [Compound 44] | 7.14 | 6.16 | 7.78 | – | chromatographic logD [1]: 2.14; Solubility [2]: 134 µg/mL (≈ 268 µM); microsomal CLint [5]: < 10 µL/min/mg; microsomal CLint [6]: < 10 µL/min/mg; pIC50 (BRD4-BD1 [7]; [15]): 8.35 ± 0.01 |
| Cc1nnn(C)c1-c1ccc2c3nnc(NCCO)nc3n([C@H](c3ccccn3)C3CCOCC3)c2c1 (single isomer, unassigned) [Compound 45] | 7.14 | 5.83 | 9.36 | – | Solubility [2]: 138 µg/mL (≈ 276 µM); microsomal CLint [5]: < 10 µL/min/mg; microsomal CLint [6]: < 10 µL/min/mg; pIC50 (BRD4-BD1 [7]; [15]): 8.02 ± 0.08 |
| Cc1nnn(C)c1-c1cnc2c3ccc(C(C)(C)O)cc3n([C@@H](c3ccccc3)C3CCOCC3)c2c1 (stereo in doubt) [Compound 4, BMS-986158, reference compound] | 9.08 | 3.51 | 49.8 | – | chromatographic logD [1]: 4.08; Solubility [2]: 109 µg/mL (≈ 220 µM); IC50 (BRD4 [8]): 1.1 nM; cytotoxicity [9]: potent cytotoxicity; IC50 (BRD2): 0.8 nM; IC50 (BRD3): 1.4 nM |
| Cc1sc2c(c1C)C(c1ccc(Cl)cc1)=N[C@@H](CC(=O)OC(C)(C)C)c1nnc(C)n1-2 [Compound 1, JQ1] | – | – | – | – | c-Myc expression (c-Myc expression): effectively downregulate; half-life [10]: 1 h; oral bioavailability [10]: low; tumor cell proliferation (tumor cell): inhibit tumor cell proliferation; pIC50 (BRD4 [11]): 7.10 |
| COc1cc2c(cc1-c1c(C)noc1C)ncc1[nH]c(=O)n([C@H](C)c3ccccn3)c12 [Compound 2, I-BET151] | – | – | – | – | c-Myc expression (c-Myc expression): effectively downregulate; pIC50 (BRD4 [12]): 6.10; cardiotoxicity [13]: exhibited cardiotoxicity; tumor cell proliferation (tumor cell): inhibit tumor cell proliferation |
| CCS(=O)(=O)Nc1ccc(Oc2ccc(F)cc2F)c(-c2cn(C)c(=O)c3[nH]ccc23)c1 [Compound 3, N-(4-(2,4-Difluorophenoxy)-3-(6-methyl-7-oxo-6,7-dihydro-1H-pyrrolo[2,3-c]pyridin-4-yl)phenyl)ethanesulfonamide] | – | – | – | – | c-Myc expression (c-Myc expression): effectively downregulate; tumor cell proliferation (tumor cell): inhibit tumor cell proliferation; pIC50 (BRD4 [14]): 8.82 |
| COCCNc1nnc2c(n1)[nH]c1cc(-c3c(C)noc3C)ccc12 [Compound 5a] | 6.83 | 4.39 | – | 6.22 ± 0.05 | – |
| COCCNc1nnc2c(n1)[nH]c1ccc(-c3c(C)noc3C)cc12 [Compound 5b] | 6.78 | 3.82 | – | 5.64 ± 0.05 | – |
| COCCNc1nnc2c3ccc(-c4c(C)noc4C)cc3n(Cc3ccccc3)c2n1 [Compound 12a] | 10.6 | 4.22 | – | 7.53 ± 0.12 | – |
| COCCNc1nnc2c3cc(-c4c(C)noc4C)ccc3n(Cc3ccccc3)c2n1 [Compound 12b] | 10.8 | 2.77 | – | 6.08 ± 0.34 | – |
| COCCNc1nnc2c3ccc(-c4c(C)noc4C)cc3n(Cc3ccc(F)cc3)c2n1 [Compound 13a] | 10.7 | 3.93 | – | 7.34 ± 0.04 | – |
| COCCNc1nnc2c3cc(-c4c(C)noc4C)ccc3n(Cc3ccc(F)cc3)c2n1 [Compound 13b] | 10.8 | 2.77 | – | 6.18 ± 0.05 | – |
| COCCNc1nnc2c3ccc(-c4c(C)noc4C)cc3n(C(c3ccccc3)C3CCOCC3)c2n1 (stereo not drawn) [Compound 22] | 10.6 | 3.69 | – | 8.27 ± 0.31 | – |
| COCCNc1nnc2c3cc(-c4c(C)noc4C)ccc3n(C(c3ccccc3)C3CCOCC3)c2n1 (stereo not drawn) [Compound 23] | 10.7 | 1.75 | – | 6.33 ± 0.03 | – |
| COCCNc1nnc2c3ccc(-c4c(C)noc4C)cc3n(C(c3ccccn3)C3CCOCC3)c2n1 (stereo not drawn) [Compound 24] | 9.74 | 4.38 | – | 8.01 ± 0.11 | – |
| COCCNc1nnc2c3ccc(-c4c(C)noc4C)cc3n(C(c3ccccc3)C3CCNCC3)c2n1 (stereo not drawn) [Compound 27] | 7.96 | 3.20 | – | 7.63 ± 0.05 | – |
| COCCNc1nnc2c3ccc(-c4c(C)noc4C)cc3n(C(c3ccccn3)C3CCNCC3)c2n1 (stereo not drawn) [Compound 28] | 7.37 | 4.25 | – | 7.74 ± 0.12 | – |
| Cc1noc(C)c1-c1ccc2c3nnc(NCCO)nc3n(C(c3ccccn3)C3CCNCC3)c2c1 (stereo not drawn) [Compound 29] | 6.74 and < 7 | 4.23 | < 0.3 | – | pIC50 (BRD4-BD1 [7]; [16]): 7.29 ± 0.06 |
| COCCNc1nnc2c3ccc(-c4c(C)nnn4C)cc3n(C(c3ccccn3)C3CCNCC3)c2n1 (stereo not drawn) [Compound 30] | 6.46 and < 7 | 4.93 | < 0.3 | – | pIC50 (BRD4-BD1 [7]; [16]): 7.41 ± 0.03 |
| Cc1nnn(C)c1-c1ccc2c3nnc(NCCO)nc3n(C(c3ccccn3)C3CCOCC3)c2c1 (stereo not drawn) [Compound 40] | 7.15 | 5.79 | 10.4 | – | pIC50 (BRD4-BD1 [7]; [16]): 7.98 ± 0.17 |
